# From PubChem BioAssay (NCI)
# Where “and” joins values, the source holds several entries; their conditions need not be identical. Identical values can stand only once.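 A five-concentration, 48-hour dose response in 96-well plates underlies each endpoint, interpolated linearly between surrounding concentrations. GI50 marks 50% less growth. TGI: concentration producing complete growth inhibition.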
# Tests used:
# Experiment in all cases: growth of human tumour cells (NCI), 48 h
# [1] = system: KM12 colon
# [2] = system: HCC-2998 colon
# [3] = system: NCI-H23 lung
# [4] = system: SW-620 colon
# [5] = system: ACHN renal
# [6] = system: OVCAR-8 ovarian
# [7] = system: OVCAR-5 ovarian
# [8] = system: IGROV1 ovarian
# [9] = system: UACC-62 melanoma
# [10] = system: NCI-H226 lung
# [11] = system: OVCAR-3 ovarian
# [12] = system: MDA-MB-231 breast
# [13] = system: SK-OV-3 ovarian
# [14] = system: SNB-19 CNS
# [15] = system: SK-MEL-28 melanoma
# [16] = system: U251 CNS
# [17] = system: NCI/ADR-RES ovarian
# [18] = system: MDA-N
# [19] = system: PC-3 prostate
# [20] = system: SF-268 CNS
# [21] = system: SR leukemia
# [22] = system: CCRF-CEM leukemia
# [23] = system: CAKI-1 renal
# [24] = system: A549 NSCLC
# [25] = system: LOX IMVI melanoma
# [26] = system: NCI-H460 lung
# [27] = system: SNB-75 CNS
# [28] = system: MDA-MB-435
# [29] = system: K-562 leukemia
# [30] = system: NCI-H522 lung
# [31] = system: RXF 393 renal
# [32] = system: SF-295 CNS
# [33] = system: HCT-15 colon
# [34] = system: OVCAR-4 ovarian
# [35] = system: SK-MEL-5 melanoma
# [36] = system: SN12C renal
# [37] = system: HCT-116 colon
# [38] = system: HOP-62 NSCLC
# [39] = system: COLO 205 colon
# [40] = system: HT29 colon
# [41] = system: HOP-92 NSCLC
# [42] = system: M14 melanoma
# [43] = system: HS 578T breast
# [44] = system: A498 renal
# [45] = system: SF-539 CNS
# [46] = system: RPMI-8226 leukemia
# [47] = system: 786-0 renal
# [48] = system: MALME-3M melanoma
# [49] = system: TK-10 renal
# [50] = system: HL-60(TB) leukemia
# [51] = system: T-47D breast
# [52] = system: UACC-257 melanoma
# [53] = system: EKVX NSCLC
# [54] = system: DU-145 prostate
# [55] = system: SK-MEL-2 melanoma
# [56] = system: UO-31 renal
# [57] = system: MCF7 breast
# [58] = system: BT-549 breast
# [59] = system: MOLT-4 leukemia
compound,measurement,setting,value
CCC1(C)N=C(C(N)=O)c2ncn(N=C(C)C)c2N1 (stereo not drawn),TGI,[1],> 100 µM
same,TGI,[2],> 100 µM
same,TGI,[3],> 100 µM
same,TGI,[4],> 100 µM
same,TGI,[5],> 100 µM
same,TGI,[6],> 100 µM
same,TGI,[7],> 100 µM
same,TGI,[8],> 100 µM
same,TGI,[9],> 100 µM
same,TGI,[10],> 100 µM
same,TGI,[11],> 100 µM
same,TGI,[12],> 100 µM
same,TGI,[13],> 100 µM
same,TGI,[14],> 100 µM
same,TGI,[15],> 100 µM
same,TGI,[16],> 100 µM
same,TGI,[17],> 100 µM
same,TGI,[18],> 100 µM
same,TGI,[19],> 100 µM
same,TGI,[20],> 100 µM
same,TGI,[21],> 100 µM
same,TGI,[22],> 100 µM
same,TGI,[23],> 100 µM
same,TGI,[24],> 100 µM
same,TGI,[25],> 100 µM
same,TGI,[26],> 100 µM
same,TGI,[27],> 100 µM
same,TGI,[28],> 100 µM
same,TGI,[29],> 100 µM
same,TGI,[30],> 100 µM
same,TGI,[31],> 100 µM
same,TGI,[32],> 100 µM
same,TGI,[33],> 100 µM
same,TGI,[34],> 100 µM
same,TGI,[35],> 100 µM
same,TGI,[36],> 100 µM
same,TGI,[37],> 100 µM
same,TGI,[38],> 100 µM
same,TGI,[39],> 100 µM
same,TGI,[40],> 100 µM
same,TGI,[41],> 100 µM
same,TGI,[42],> 100 µM
same,TGI,[43],> 100 µM
same,TGI,[44],> 100 µM
same,TGI,[45],> 100 µM
same,TGI,[46],> 100 µM
same,TGI,[47],> 100 µM
same,TGI,[48],> 100 µM
same,TGI,[49],> 100 µM
same,TGI,[50],> 100 µM
same,TGI,[51],> 100 µM
same,TGI,[52],> 100 µM
same,TGI,[53],> 100 µM
same,TGI,[54],> 100 µM
O=[N+]([O-])c1ccc2c(N=Nc3c(O)ccc4ccccc34)c(O)cc(S(=O)(=O)O)c2c1,GI50,[1],49.9 µM
same,TGI,[1],50 µM and > 100 µM
same,GI50,[55],40.9 µM
same,TGI,[55],50 µM and > 100 µM
same,TGI,[2],> 100 µM
same,GI50,[3],49.8 µM
same,TGI,[3],50 µM and > 100 µM
same,GI50,[4],57.7 µM
same,TGI,[4],50 µM and > 100 µM
same,GI50,[5],18.1 µM
same,TGI,[5],50 µM and > 100 µM
same,GI50,[6],31.3 µM
same,TGI,[6],50 µM and > 100 µM
same,GI50,[7],70.3 µM
same,TGI,[7],50 µM and > 100 µM
same,GI50,[8],27.7 µM
same,TGI,[8],50 µM and > 100 µM
same,GI50,[9],34.2 µM
same,TGI,[9],50 µM and > 100 µM
same,TGI,[10],50 µM
same,GI50,[11],9.36 µM
same,TGI,[11],50 µM and > 100 µM
same,GI50,[12],> 100 µM
same,TGI,[12],50 µM and > 100 µM
same,TGI,[13],50 µM
same,GI50,[14],19.3 µM
same,TGI,[14],50 µM and > 100 µM
same,GI50,[15],32.5 µM
same,TGI,[15],50 µM and > 100 µM
same,GI50,[16],12.5 µM
same,TGI,[16],50 µM and > 100 µM
same,GI50,[17],40.6 µM
same,TGI,[17],33.4 µM and > 100 µM
same,GI50,[56],10.9 µM
same,TGI,[56],18.9 µM and 51.5 µM
same,GI50,[18],45.3 µM
same,TGI,[18],50 µM and > 100 µM
same,GI50,[19],34.5 µM
same,TGI,[19],50 µM and > 100 µM
same,GI50,[20],23.9 µM
same,TGI,[20],50 µM and > 100 µM
same,TGI,[21],> 100 µM
same,GI50,[22],19.8 µM
same,TGI,[22],50 µM and > 100 µM
same,TGI,[23],50 µM
same,GI50,[24],59.7 µM
same,TGI,[24],50 µM and > 100 µM
same,TGI,[25],> 100 µM
same,TGI,[26],> 100 µM
same,GI50,[27],44.8 µM
same,TGI,[27],50 µM and > 100 µM
same,GI50,[28],47.5 µM
same,TGI,[28],50 µM and > 100 µM
same,GI50,[29],25 µM
same,TGI,[29],50 µM and > 100 µM
same,GI50,[30],17.4 µM
same,TGI,[30],50 µM and > 100 µM
same,GI50,[31],27.1 µM
same,TGI,[31],50 µM and > 100 µM
same,TGI,[57],> 100 µM
same,GI50,[32],29.5 µM
same,TGI,[32],50 µM and > 100 µM
same,GI50,[58],37.5 µM
same,TGI,[58],50 µM and > 100 µM
same,GI50,[33],29.9 µM
same,TGI,[33],50 µM and > 100 µM
same,TGI,[34],50 µM
same,GI50,[59],15.7 µM
same,TGI,[59],50 µM and > 100 µM
same,GI50,[35],46.7 µM
same,TGI,[35],50 µM and > 100 µM
same,GI50,[36],59 µM
same,TGI,[36],50 µM and > 100 µM
same,GI50,[37],25.6 µM
same,TGI,[37],50 µM and > 100 µM
same,GI50,[38],17.1 µM
same,TGI,[38],50 µM and > 100 µM
same,GI50,[39],53.4 µM
same,TGI,[39],50 µM and > 100 µM
same,GI50,[40],49.6 µM
same,TGI,[40],50 µM and > 100 µM
same,TGI,[41],50 µM
same,TGI,[42],10.5 µM
same,GI50,[43],67.2 µM
same,TGI,[43],> 100 µM
same,TGI,[45],50.8 µM
same,GI50,[46],67.1 µM
same,TGI,[46],50 µM and > 100 µM
same,GI50,[47],30.7 µM
same,TGI,[47],50 µM and > 100 µM
same,GI50,[48],50.1 µM
same,TGI,[48],40.3 µM and > 100 µM
same,GI50,[49],87.3 µM
same,TGI,[49],50 µM and > 100 µM
same,GI50,[50],7.58 µM
same,TGI,[50],14.9 µM and 58.6 µM
same,GI50,[52],32 µM
same,TGI,[52],50 µM and > 100 µM
same,GI50,[53],39.4 µM
same,TGI,[53],> 100 µM
same,TGI,[54],> 100 µM
Cc1ccc(S(=O)(=O)N/N=C2\C=C[C@]3(CC2)C(=O)N(C)c2ccccc23)cc1,TGI,[1],> 100 µM
same,TGI,[55],> 100 µM
same,TGI,[2],> 100 µM
same,TGI,[3],> 100 µM
same,TGI,[4],> 100 µM
same,TGI,[5],> 100 µM
same,TGI,[6],> 100 µM
same,TGI,[7],> 100 µM
same,TGI,[8],> 100 µM
same,TGI,[9],> 100 µM
same,TGI,[10],> 100 µM
same,TGI,[11],> 100 µM
same,TGI,[12],> 100 µM
same,TGI,[13],> 100 µM
same,TGI,[14],> 100 µM
same,TGI,[15],> 100 µM
same,TGI,[16],> 100 µM
same,TGI,[17],> 100 µM
same,TGI,[56],> 100 µM
same,TGI,[18],> 100 µM
same,TGI,[19],> 100 µM
same,TGI,[20],> 100 µM
same,TGI,[21],> 100 µM
same,TGI,[22],> 100 µM
same,TGI,[23],> 100 µM
same,TGI,[24],> 100 µM
same,TGI,[25],> 100 µM
same,TGI,[26],> 100 µM
same,TGI,[27],> 100 µM
same,TGI,[28],> 100 µM
same,TGI,[29],> 100 µM
same,TGI,[31],> 100 µM
same,TGI,[57],> 100 µM
same,TGI,[32],> 100 µM
same,TGI,[33],> 100 µM
same,TGI,[34],> 100 µM
same,TGI,[59],> 100 µM
same,TGI,[35],> 100 µM
same,TGI,[36],> 100 µM
same,TGI,[37],> 100 µM
same,TGI,[38],> 100 µM
same,TGI,[39],> 100 µM
same,TGI,[41],> 100 µM
same,TGI,[42],> 100 µM
same,TGI,[43],> 100 µM
same,TGI,[44],> 100 µM
same,TGI,[46],> 100 µM
same,TGI,[47],> 100 µM
same,TGI,[50],> 100 µM
same,TGI,[51],> 100 µM
same,TGI,[52],> 100 µM
same,TGI,[53],> 100 µM
same,TGI,[54],> 100 µM
